{
  "source": "paper PMC12747932",
  "about": "“Crystal structures of Kif2A complexed with WDR5 reveal the structural plasticity of WIN-S7 sites” (Acta Biochimica et Biophysica Sinica, 2025)",
  "target": "T1, human WDR5 (residues 24–334) (Homo sapiens, UniProt P61964)",
  "T1 construct": "human WDR5 seven tandem WD-40 domain (residues 24–334); GST (N, cleaved yes); made in house; host or cells: Escherichia coli BL21 (DE3)",
  "assay": "ITC assay of Kif2A peptides titrated into WDR5",
  "conditions": "wild-type WDR5 0.05 mM, peptide approx. 1 mM, 20 mM Tris-HCl, 200 mM NaCl, pH 7.5, 20°C, mean±SD of a minimum of two experiments, N.D. = not detectable binding",
  "excerpt": "The DNA fragment encoding the human WDR5 seven tandem WD-40 domain (residues 24–334) was amplified via PCR from the human brain and bone marrow cDNA library and cloned and inserted into the pGEX-4T1 vector, which was modified to include an N-terminal GST tag and a TEV cleavage site (ENLYFQ/GSHM) (where ‘/’ denotes the cleavage site). The Y191F variant of WDR5 was generated using a MutanBEST kit (TaKaRa, Dalian, China) and verified via DNA sequencing. Proteins were expressed in Escherichia coli BL21 (DE3) cells (Novagen, Darmstadt, Germany) cultured in Luria-Bertani medium at 37°C. Protein expression was induced with 0.2 mM isopropyl β-D-1-thiogalactopyranoside (IPTG) once the optical density at 600 nm (OD600) reached 0.8, and the cultures were shifted to 16°C for incubation for 18 h. The cells were harvested by centrifugation and resuspended in Buffer A (20 mM Tris-HCl, 1 M NaCl, pH 8.0) supplemented with DNase I (10 U) and cOmplete, EDTA-free Protease Inhibitor Cocktail (1 tablet dissolved in 1 mL of sterile water), after which they were lysed by ultrasonication. […]\nITC assays were performed on a Microcal PEAQ-ITC instrument (Malvern Panalytical, Westborough, USA) at 20°C as previously described. Protein concentrations were quantified by measuring the absorbance at 280 nm and diluted to 0.05 mM with Buffer E. Peptides were prepared at approximately 1 mM in the same buffer. […]",
  "data": [
    {"sequence": "GSAAARPSQ [Kif2A ^R117A, Kif2A 114–122 peptide with R117A mutation, …]", "values": [
      {"measurement": "KD, dissociation constant", "result": "completely abolished binding"}
    ]}
  ]
}
